Several values for one entry are separate records, joined by “and”; a condition that tells them apart may be missing. Equal values may be shown once. Read-outs that look alike come from different tables or passages of the source.
Key:
Phytophthora infestans [1] = type: in vivo; conditions: 6 days after inoculation, tomatoes
Plasmopara viticola [2] = assay: Field trial, grape vines, Campinas, Brazil (heavy natural infection); type: in vivo; conditions: grapes
Experimental: (§1) The results provided by the mixtures were compared with the predicted results that were calculated using the formula set forth by S.R. Colby in Weeds 1967, 15, 20-22 ("Colby's Formula") from the results obtained using each of the compounds individually. The predicted results are also provided in the following Examples.
A field trial was conducted in Campinas, Brazil. Plots each consisted of 4 grape vines, cultivar Maria.
Fungicide treatments were applied at 7-day intervals with a total of 5 applications. N-[3'(1'-chloro-3'-methyl-2'-oxopentan]-3,5-dichloro-4-methylbenzamide was applied as a flowable formulation (23% active ingredient) , 2-cyano-N-((ethylamino)carbonyl)-2-(methoxyimino)acetamide as a wettable powder formulation (CURZATE™, 50WP, DuPont, Wilmington, DE). The two compounds were each applied individually in the manner disclosed above and in combination as an aqueous tank mix of the two compounds.
Evaluation of disease in response to a heavy natural infection was made 6 days after the third application, and 7 days after the fifth application. The Compounds applied and dosage rates, expressed as grams of active ingredient per hectare (Compound Dosage Rate (g/ha)) and the results, expressed as percent disease control in comparison with untreated plots (% Control(Observed)) are set forth below in TABLE 6 for treatment with N-[3'(1'-chloro-3'-methyl-2'-oxopentan]-3,5-dichloro4-methylbenzamide, treatment with 2-cyano-N-((ethylamino)carbonyl)-2-(methoxyimino)acetamide and treatment with mixtures of the two compounds. The results obtained using the mixtures of the two compounds were compared with those predicted by Colby's formula from the results provided by each of the two compounds used individually. The predicted results are set forth below in TABLE 6 as "% Control (Predicted)".

Plasmopara viticola [3] = assay: Field trial, grape downy mildew fruit rot, Michigan, U.S.A. (natural infection); type: in vivo; conditions: 12 days after last treatment, 100 g/ha of each compound, grapes; for % Control, Incidence (Observed): downy mildew fruit rot incidence; for % Control, Severity (Observed): downy mildew fruit rot severity (diseased fruit surface area)
Experimental: as §1
The trial was conducted in the State of Michigan, U.S.A. Plots consisted of 4 grape vines, cultivar Chancellor. Four such plots arranged in randomized blocks were used for each treatment
Fungicide treatments were applied at day 0, and at 13, 28, 43, 55, 71, and 84 days thereafter. N-[3(1'-chloro-3'-methyl-2'-oxopentan]-3,5-dichloro-4-methylbenzamide was applied as a flowable formulation (23% active ingredient) at 100 grams of active ingredient per hectare, and 2-cyano-N-((ethylamino)carbonyl)-2-(methoxyimino)acetamide was applied as a wettable powder formulation (CURZATE™, 50WP, DuPont, Wilmington, DE) at 100 grams of active ingredient per hectare. The two compounds were also applied as an aqueous tank mix of the two compounds at a dosage of 100 grams of active ingredient per hectare of each compound.
Evaluation of disease in response to natural infection was made 12 days after the last treatment The incidence and severity of downy mildew fruit rot was determined for twenty clusters of fruit selected randomly from the middle two vines of each plot Incidence refers to whether or not the cluster was diseased, and severity is the percentage of diseased fruit surface area. The compounds applied (Compound), and the incidence and severity results, expressed as percent disease control in comparison with untreated plots (% Control, Incidence (Observed) and % Control, Severity (Observed), respectively) are set forth below in TABLE 4 for treatment with N-[3'(1'-chloro-3'-methyl-2'-oxopentan]-3,5-dichloro-4-methylbenzamide, treatment with 2-cyano-N-((ethylamino)carbonyl)-2-(methoxyimino)acetamide and treatment with a mixture of the two compounds. The results obtained using the mixture of the two compounds were compared with predicted results that were calculated using Colby's formula from the results obtained using each of the compounds individually. The predicted results for incidence and severity are set forth below in TABLE 4 as "% Control, Incidence (Predicted)" and "% Control, Severity (Predicted)", respectively.

Plasmopara viticola [4] = conditions: in vivo
Phytophthora infestans [5] = conditions: in vivo
Phytophthora infestans [6] = conditions: in vivo; remark: listed apart in the source

Compound | % Control (Observed) (Phytophthora infestans [1]; single compound 0.4 ppm) [%] | % Control (Observed) (Phytophthora infestans [1]; single compound 0.8 ppm) [%] | % Control, Incidence (Observed) (Plasmopara viticola [3]) [%] | % Control, Severity (Observed) (Plasmopara viticola [3]) [%] | % Control (Observed) (Plasmopara viticola [4]) [%] | % Control by Evaluation Interval 5 weeks (Phytophthora infestans [5]) | % Control by Evaluation Interval 6 weeks (Phytophthora infestans [5]) | % Control by Evaluation Interval 7 weeks (Phytophthora infestans [5]) | % Control (Observed) (Phytophthora infestans [6]) [%] | also measured
COc1ccc(C(=CC(=O)N2CCOCC2)c2ccc(Cl)cc2)cc1OC [Compound D, (E,Z) 4-(3-(4-chlorophenyl)-3-(3,4-dimethoxyphenyl)acryloyl) morpholine] | 0 | 10 |  |  |  |  |  |  |  | % Control (Observed) (Phytophthora infestans [1]; single compound 1.5 ppm): 35%
CCNC(=O)NC(=O)C(C#N)=NOC [Compound C, 2-cyano-N-((ethylamino)carbonyl)-2-(methoxyimino)acetamide] |  |  | 2.5 | 34.6 |  |  |  |  |  | % Control (Observed) (Plasmopara viticola [2]; Seven days after the fifth treatment, C 25 g/ha alone): 66.7%; % Control (Observed) (Plasmopara viticola [2]; Seven days after the fifth treatment, C 50 g/ha alone): 59.6%; % Control (Observed) (Plasmopara viticola [2]; Seven days after the fifth treatment, C 100 g/ha alone): 64.3%; % Control (Observed) (Plasmopara viticola [2]; Six days after the third treatment, C 25 g/ha alone): 71.3%; % Control (Observed) (Plasmopara viticola [2]; Six days after the third treatment, C 50 g/ha alone): 64.8%; % Control (Observed) (Plasmopara viticola [2]; Six days after the third treatment, C 100 g/ha alone): 74.1%
CCC(C)(NC(=O)c1cc(Cl)c(C)c(Cl)c1)C(=O)CCl (stereo not drawn) [Compound A] | 0 | 20 | 43.7 | 75.3 | 87 | 99% and 98% | 97% and 81% | 88% and 56% | 23 | % Control (Observed) (Plasmopara viticola [2]; Seven days after the fifth treatment, A 100 g/ha alone): 21.4%; % Control (Observed) (Plasmopara viticola [2]; Seven days after the fifth treatment, A 200 g/ha alone): 26.1%; % Control (Observed) (Plasmopara viticola [2]; Six days after the third treatment, A 100 g/ha alone): 24.3%; % Control (Observed) (Plasmopara viticola [2]; Six days after the third treatment, A 200 g/ha alone): 21.8%; % Control by Evaluation Interval 9 weeks (Phytophthora infestans [5]): 16% and 11%; % Control by Evaluation Interval 10 weeks (Phytophthora infestans [5]): 11% and 6%; % Control by Evaluation Interval 11 weeks (Phytophthora infestans [5]): 1% and 0%
manganese-zinc ethylenebis(dithiocarbamate) [reference compound] |  |  |  |  | 61 | 99% and 98% | 98% and 88% | 95% and 80% | 69 | % Control by Evaluation Interval 8 weeks (Phytophthora infestans [5]): 87% and 62%

Reference: patent EP0753258B1 (priority 1995, dated 1997)
